Experimental data from patent publication US8772269B2, “Use of sulfonamide-including compounds in combination with angiogenesis inhibitors” (Eisai R&D Management Co., Ltd., priority 2004, dated 2014).

Tests used:
[1] = system: human renal cancer cell line 786-O; test: Subcutaneous transplantation model of 786-O, E7820 and Compound A; format: in vivo, nude mice; conditions: E7820 100 mg/kg twice a day, Compound A 100 mg/kg once a day, oral, 2 weeks; alone or combined
Description: Human renal cancer cell line 786-O (purchased from ATCC) was cultured in RPMI1640 (containing 10% FBS) to about 80% confluency in a 5% carbon dioxide incubator, and the cells were collected by trypsin-EDTA. The cells were diluted with 50% Matrigel-containing phosphate buffer to prepare a 1×10^8 cells/mL suspension, and the resulting cell suspension was subcutaneously transplanted in 0.1 mL volumes to nude mice at the side of their body. Starting from 7 days after the transplantation, E7820 (100 mg/kg, given twice a day for 2 weeks) and 4-(3-chloro-4-(cyclopropylaminocarbonyl)aminophenoxy)-7-methoxy-6-quinolinecarboxamide (100 mg/kg, given once a day for 2 weeks) were administered alone or in combination by the oral route. Tumor long and short axes were measured with a digimatic caliper (Mitsutoyo) and used to calculate both tumor volume and relative tumor volume according to the following equations. Tumor volume TV=tumor long axis(mm)×tumor short axis^2(mm^2)/2 Relative tumor volume RTV=tumor volume at the day of measurement/tumor volume at the first day of administration

[2] = system: HCT116-C9; test: Cell growth inhibition assay (MTT method), cross resistance study; format: cell-based, human; conditions: Example 5, HCT116-C9, 72 hours, read-out: antiproliferative activity IC50
From the text: E7070-resistant sub-clonal cell lines were used to evaluate the antiproliferative activity of E7820, LY186641, LY295501, LY-ASAP and CQS. HCT116-C9 was a sub-clone separated from the human colon cancer cell line HCT116 (American Type Culture Collection, Manassas, Va., U.S.A.), while HCT116-C9-C1 and HCT116-C9-C4 were E7070-resistant sub-clonal cell lines obtained by culturing this HCT116-C9 in the presence of gradually increasing concentrations of E7070 (Molecular Cancer Therapeutics, 2002, 1, 275-286).
These 3 cell lines HCT116-C9, HCT116-C9-C1 and HCT116-C9-C4 were each seeded at 3000 cells/well in 96-well microplates (flat-bottomed) (50 μl/well). After 24 hours, a 3-fold dilution series of each compound was added (50 μl/well). After 72 hours, the cell growth inhibitory activity was evaluated by the MTT method (Mossmann T., J. Immunol. Methods, 1983, 65, 55-63). The least squares method was used to determine the 50% growth inhibitory concentration of each compound against each cancer cell line.
Exactly the same procedure as used in Example 4 was repeated to evaluate the antiproliferative activity of both LY573636 and E7070 using E7070-resistant sub-clonal cell lines.

[3] = system: human colon cancer cell line Colo320DM; test: Subcutaneous transplantation model of Colo320DM, E7070 and bevacizumab; format: in vivo, nude mice; conditions: E7070 40 mg/kg/day i.v. Day 1-5, bevacizumab 25 mg/kg/day i.v. Days 1, 5, 8, 12; for Relative tumor volume (RTV) Mean ± SD: at Day 23; for Tx4 Mean ± SD: time for tumor to grow 4-fold of initial volume
Description: Human colon cancer cell line Colo320DM (purchased from ATCC) was cultured in RPMI1640 (containing 10% FBS) to about 80% confluency in a 5% carbon dioxide incubator, and the cells were collected by trypsin-EDTA. The cells were diluted with Hanks balanced solution to prepare a 5×10^7 cells/ml suspension, and the resulting cell suspension was subcutaneously transplanted in 0.1 mL volumes to nude mice at the side of their body.
After the transplantation, from the time point when the mean tumor volume reached 259 mm^3, E7070 (40 mg/kg/day) and bevacizumab (25 mg/kg/day) were administered alone or in combination.
E7070 alone was administered once a day for 5 days (Day 1 to Day 5) by the intravenous route. Bevacizumab alone was administered twice a week for 2 weeks (Days 1, 5, 8 and 12) by the intravenous route.
The co-treated group was administered with E7070 at Day 1 to Day 5 by the intravenous route and with bevacizumab at Days 1, 5, 8 and 12 by the intravenous route.
After starting the administration, tumor long and short axes were measured at a frequency of twice a week with a digimatic caliper (Mitsutoyo) and used to calculate the tumor volume according to the following equation. Tumor volume TV=tumor long axis(mm)×tumor short axis^2(mm^2)/2
For determination of the anti-tumor effect, the values of the following two parameters were used.
Tx4: Time (days) required for a tumor to grow 4-fold of the initial tumor volume
RTV: Relative tumor volume (RTV) at Day 23* • * RTV=tumor volume at Day 23/initial tumor volume at Day 1
Likewise, if the co-treated group produces a higher anti-tumor effect than the groups treated with either drug alone and has a significance level of 0.05<P<0.10, E7070 and bevacizumab are determined to have a synergistic tendency.

[4] = system: Human umbilical vein endothelial cells; test: VEGF-induced cell proliferation in vascular endothelial cell proliferation assay (in vitro); format: cell-based; conditions: 3 days, absorbance relative to untreated cells
Description: Human umbilical vein endothelial cells were suspended in 2% FBS-containing Human endothelial-SFM Basal Growth Medium (Invitrogen Corporation) and adjusted to 1×10^4 cells/ml. The resulting cell suspension was dispensed in 100 μl aliquots into each well of 96-well plates and cultured at 37° C. in a 5% carbon dioxide incubator. On the next day, a solution containing E7820, a solution containing bevacizumab (Avastin®, purchased from Genentech), and a solution containing both E7820 and bevacizumab were respectively diluted with Human endothelial-SFM Basal Growth Medium containing 20 ng/ml VEGF (Genzyme Techne Corp.) and 2% FBS. The resulting diluted solutions were then added to the individual wells of the plates in a volume of 100 μl/well, followed by further culturing.
The combined effect was calculated according to the equation of Chou et al. (Adv. Enzyme Regul., 22, 27-55, 1984).

[5] = system: human colon cancer cell line Colo320DM; test: Subcutaneous transplantation model of Colo320DM, E7820 and bevacizumab; format: in vivo, nude mice; conditions: E7820 200 mg/kg twice a day oral 3 weeks; bevacizumab 25 mg/kg twice a week intravenous 3 weeks; alone or combined
Description: Human colon cancer cell line Colo320DM (purchased from Dainippon Pharmaceutical Co., Ltd., Japan) was cultured at 37° C. in RPMI1640 (containing 10% FBS) to about 80% confluency in a 5% carbon dioxide incubator, and the cells were collected by trypsin-EDTA. The cells were diluted with 50% Matrigel-containing phosphate buffer to prepare a 5×10^7 cells/mL suspension, and the resulting cell suspension was subcutaneously transplanted in 0.1 mL volumes to nude mice at the side of their body. Starting from 7 days after the transplantation, E7820 (200 mg/kg, given twice a day for 3 weeks by the oral route) and bevacizumab (25 mg/kg, given twice a week for 3 weeks by the intravenous route) were administered. Tumor long and short axes were measured with a digimatic caliper (Mitsutoyo) and used to calculate both tumor volume and relative tumor volume according to the following equations. Tumor volume TV=tumor long axis(mm)×tumor short axis^2(mm^2)/2 Relative tumor volume RTV=tumor volume at the day of measurement/tumor volume at the first day of administration

[6] = compound concentration 0.0006 μg/μl
[7] = compound concentration 0.0012 μg/μl
[8] = compound concentration 0.0024 μg/μl
[9] = compound concentration 0.0049 μg/μl
[10] = compound concentration 0.0098 μg/μl
[11] = compound concentration 0.0195 μg/μl
[12] = compound concentration 0.0391 μg/μl
[13] = compound concentration 0.0781 μg/μl
[14] = compound concentration 0.1563 μg/μl
[15] = compound concentration 0.3125 μg/μl
[16] = compound concentration 0.6250 μg/μl
[17] = compound concentration 1.2500 μg/μl
[18] = compound concentration 2.5000 μg/μl
[19] = compound concentration 5.0000 μg/μl
[20] = compound concentration 10.0000 μg/μl
[21] = compound concentration 20.0000 μg/μl
[22] = compound concentration 40.0000 μg/μl

| Molecule | Relative tumor volume at Day 22 Mean ± SD [1] | Relative tumor volume (RTV) Mean ± SD [3] | Tx4 Mean ± SD [3] [days] | % of control [4, 6] | % of control [4, 7] | % of control [4, 8] | % of control [4, 9] | % of control [4, 10] | % of control [4, 11] | % of control [4, 12] | % of control [4, 13] | % of control [4, 14] | % of control [4, 15] | % of control [4, 16] | % of control [4, 17] | % of control [4, 18] | % of control [4, 19] | % of control [4, 20] | % of control [4, 21] | % of control [4, 22] | further results |
| --- | --- | --- | --- | --- | --- | --- | --- | --- | --- | --- | --- | --- | --- | --- | --- | --- | --- | --- | --- | --- | --- |
| COc1cc2nccc(Oc3ccc(NC(=O)NC4CC4)c(Cl)c3)c2cc1C(N)=O [Compound A, 4-(3-chloro-4-(cyclopropylaminocarbonyl)aminophenoxy)-7-methoxy-6-quinolinecarboxamide] | 0.59 ± 0.12 |  |  |  |  |  |  |  |  |  |  |  |  |  |  |  |  |  |  |  |  |
| NS(=O)(=O)c1ccc(S(=O)(=O)Nc2cccc3c(Cl)c[nH]c23)cc1 [E7070, N-(3-chloro-1H-indol-7-yl)-4-sulfamoylbenzenesulfonamide] |  | 2.70 ± 0.97 | 27.0 ± 3.4 |  |  |  |  |  |  |  |  |  |  |  |  |  |  |  |  |  | IC50 [2]: 127 nM |
| Cc1ccc(NS(=O)(=O)c2cccc(C#N)c2)c2[nH]cc(C#N)c12 [E7820, N-(3-cyano-4-methyl-1H-indol-7-yl)-3-cyanobenzenesulfonamide] | 0.80 ± 0.13 |  |  | 98.9 % of control | 102.2 % of control | 104.8 % of control | 99.4 % of control | 97.2 % of control | 88.9 % of control | 87.9 % of control | 72.3 % of control | 60.5 % of control | 56.2 % of control | 57.2 % of control | 47.8 % of control | 41.4 % of control | 37.4 % of control | 34.4 % of control | 33.1 % of control | 12.5 % of control |  |
| Bevacizumab: human anti-VEGF (vascular endothelial growth factor) monoclonal antibody, purchased from Genentech under the name Avastin [reference compound] |  | 2.84 ± 0.68 | 26.3 ± 2.8 | 96.0 % of control | 94.2 % of control | 89.5 % of control | 88.3 % of control | 80.8 % of control | 78.8 % of control | 71.0 % of control | 68.5 % of control | 64.2 % of control | 62.0 % of control | 60.1 % of control | 56.1 % of control | 51.8 % of control | 54.8 % of control | 53.2 % of control | 50.4 % of control | 51.7 % of control | Relative tumor volume at Day 22 Mean ± SD [5]: 5.1 ± 0.8 |
